This is an account of results in US6643591B1, “Use of computational and experimental data to model organic compound reactivity in cytochrome P450 mediated reactions and to optimize the design of pharmaceuticals” (University of Pittsburgh, priority 1998, dated 2003).

Targets include CYP2E1 (Homo sapiens, UniProt P05181); CYP2C9 (Homo sapiens, UniProt P11712); CYP4B1 (Oryctolagus cuniculus, UniProt P15128).
A further series deals with T1, P450cam (Pseudomonas putida, UniProt P00183).
T1 construct: made in house
T1 sequence (P00183 2-415): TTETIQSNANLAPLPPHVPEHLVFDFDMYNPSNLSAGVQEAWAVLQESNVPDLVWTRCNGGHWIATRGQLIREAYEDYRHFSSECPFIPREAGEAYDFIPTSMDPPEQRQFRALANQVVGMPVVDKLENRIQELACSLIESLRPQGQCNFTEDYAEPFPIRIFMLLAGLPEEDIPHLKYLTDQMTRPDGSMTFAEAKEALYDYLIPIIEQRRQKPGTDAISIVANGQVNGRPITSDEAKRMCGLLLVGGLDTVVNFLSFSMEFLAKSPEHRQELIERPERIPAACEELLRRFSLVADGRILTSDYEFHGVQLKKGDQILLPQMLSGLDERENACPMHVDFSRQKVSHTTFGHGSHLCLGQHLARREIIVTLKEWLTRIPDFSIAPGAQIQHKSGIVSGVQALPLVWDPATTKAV
The series can be described thus: Intramolecular isotope effects with purified P450cam. It counts as in vitro ADME, bacterial. To be noted: benzylic hydroxylation, -CH2D (d1) substrate. On the procedure:
For the intramolecular isotope effect experiments herein, a substrate is chosen that contains at least two symmetrical sites, with at least one site, but not all, isotopically labeled. A single concentration of substrate is incubated with enzyme, and the ratio of labeled to unlabeled compound in the isotopic mixture of products (or the corresponding rates of formation of products) are used to calculate a KIE.
Construction of expression plasmids for P450cam, Pd, and PdR as well as protein expression and purification have been described previously (Shimoji et al. (1998) Biochemistry 37, 8848-52).
Enzyme incubations with monodeuterated toluenes and p-xylene-α-^2H1-α′-^2H1 were performed in triplicate at a single substrate concentration of 0.25 mM. […] The kinetic parameters for metabolism of the substituted toluenes were determined by GC-MS analysis of the M-(dimethylsilyl) derivative of the product benzyl alcohols (see below).

In another series the target is T2, CYP1A2 (Homo sapiens, UniProt P05177).
T2 sequence (P05177 1-516): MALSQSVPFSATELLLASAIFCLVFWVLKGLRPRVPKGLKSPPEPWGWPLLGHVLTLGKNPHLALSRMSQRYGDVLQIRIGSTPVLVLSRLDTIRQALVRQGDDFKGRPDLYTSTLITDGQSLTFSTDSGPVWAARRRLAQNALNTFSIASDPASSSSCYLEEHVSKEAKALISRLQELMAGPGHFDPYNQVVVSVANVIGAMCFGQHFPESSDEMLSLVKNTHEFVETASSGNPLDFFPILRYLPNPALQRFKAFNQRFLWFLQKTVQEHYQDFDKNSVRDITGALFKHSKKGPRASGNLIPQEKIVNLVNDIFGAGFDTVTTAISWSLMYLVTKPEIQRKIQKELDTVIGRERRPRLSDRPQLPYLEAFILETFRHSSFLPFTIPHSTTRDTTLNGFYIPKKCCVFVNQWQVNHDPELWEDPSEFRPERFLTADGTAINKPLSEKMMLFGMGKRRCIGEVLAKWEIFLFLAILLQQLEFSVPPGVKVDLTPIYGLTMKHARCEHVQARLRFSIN

The target in a further series is T3, CYP2B1 (Rattus norvegicus, UniProt P00176).
T3 sequence (P00176 1-491): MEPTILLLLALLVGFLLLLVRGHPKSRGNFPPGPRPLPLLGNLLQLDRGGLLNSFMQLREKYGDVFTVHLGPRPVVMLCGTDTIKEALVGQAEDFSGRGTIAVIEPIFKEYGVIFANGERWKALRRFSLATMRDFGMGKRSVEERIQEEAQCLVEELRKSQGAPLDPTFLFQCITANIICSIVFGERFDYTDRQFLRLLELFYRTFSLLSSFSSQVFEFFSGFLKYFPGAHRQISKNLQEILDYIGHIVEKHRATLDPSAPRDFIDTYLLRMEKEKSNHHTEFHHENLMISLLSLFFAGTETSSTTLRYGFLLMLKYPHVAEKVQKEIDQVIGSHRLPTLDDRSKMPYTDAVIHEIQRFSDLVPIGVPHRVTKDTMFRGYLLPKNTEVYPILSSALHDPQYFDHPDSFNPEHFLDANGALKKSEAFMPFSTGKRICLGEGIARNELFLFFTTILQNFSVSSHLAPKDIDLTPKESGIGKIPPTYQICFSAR

Another series addresses T4, CYP2B6 (Homo sapiens, UniProt P20813).
T4 sequence (P20813 1-491): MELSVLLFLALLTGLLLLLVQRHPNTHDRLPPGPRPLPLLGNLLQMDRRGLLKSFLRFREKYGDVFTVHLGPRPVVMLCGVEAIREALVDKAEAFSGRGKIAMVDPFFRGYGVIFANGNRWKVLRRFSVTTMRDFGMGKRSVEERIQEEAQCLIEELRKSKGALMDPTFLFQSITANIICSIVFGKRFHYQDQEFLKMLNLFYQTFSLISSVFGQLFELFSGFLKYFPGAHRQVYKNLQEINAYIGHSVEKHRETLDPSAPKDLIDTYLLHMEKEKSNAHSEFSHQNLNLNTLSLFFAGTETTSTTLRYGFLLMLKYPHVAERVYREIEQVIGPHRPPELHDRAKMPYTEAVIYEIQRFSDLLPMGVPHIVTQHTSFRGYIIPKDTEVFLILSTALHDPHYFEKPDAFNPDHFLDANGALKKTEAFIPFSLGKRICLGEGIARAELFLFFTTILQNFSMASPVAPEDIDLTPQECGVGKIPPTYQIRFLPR

Series [1] deals with CYP. The series can be described thus: Activation energy differences from experimental regioselectivity of substrates in rapid equilibrium. It counts as in vitro ADME. Also noted: unit not given here. The settings on record: difference in activation energy calculated by the experimental regioselectivity. The text has this:
Five substrates shown to undergo rapid equilibrium between positions of metabolism have been used to prepare data for regression and then correlation with Eq. 1. The differences in activation energy calculated by the experimental regioselectivity of the substrates, along with the differences in AM1 activation enthalpies, are given in Table 1. Regression of the experimental data gives a slope correction for AM1 activation energies of 0.75±0.20.

The subject of series [2] is CYP. The series can be described thus: Experimental product ratios for aromatic oxidation. The text has this:
These equations may be solved with the data in Table 4, which provides experimental data for aromatic oxidation reactions with a number of substrates.
Experimental metabolite ratios may also be used to parameterize the aromatic oxidation reaction in a theoretical model for CYP reactions. As with hydrogen atom abstraction discussed in the previous Examples, experimental ratios of aromatic oxidation to an alternate position may be determined using various CYP enzymes. These substrates were chosen based on their small size, the presence of an alternate position for metabolism, and their hydrophobicity.
In order for the substrates to be useful, the average of the rotation rates in the active sites should be rapid. […] Several human expressed CYP enzymes were used in these studies, including CYP1A1, 1A2, 2A6, 2B6, 2C8, 2C9, 2D6, 2E1, 3A4, and 3A5. The use of multiple enzymes insures that a reasonable average of any orientation preferences within the active site (see FIG. 1).

The subject of series [3] is CYP. The settings on record: cited from earlier work.

“And” between values parts separate entries of the source, which are not always exact repeats. Equal entries are not always repeated. Where two headings read alike, the source gives them in different places. Marks after values point to notes of the source that are not given here.

CYP2C9, sequence (P11712 whole entry): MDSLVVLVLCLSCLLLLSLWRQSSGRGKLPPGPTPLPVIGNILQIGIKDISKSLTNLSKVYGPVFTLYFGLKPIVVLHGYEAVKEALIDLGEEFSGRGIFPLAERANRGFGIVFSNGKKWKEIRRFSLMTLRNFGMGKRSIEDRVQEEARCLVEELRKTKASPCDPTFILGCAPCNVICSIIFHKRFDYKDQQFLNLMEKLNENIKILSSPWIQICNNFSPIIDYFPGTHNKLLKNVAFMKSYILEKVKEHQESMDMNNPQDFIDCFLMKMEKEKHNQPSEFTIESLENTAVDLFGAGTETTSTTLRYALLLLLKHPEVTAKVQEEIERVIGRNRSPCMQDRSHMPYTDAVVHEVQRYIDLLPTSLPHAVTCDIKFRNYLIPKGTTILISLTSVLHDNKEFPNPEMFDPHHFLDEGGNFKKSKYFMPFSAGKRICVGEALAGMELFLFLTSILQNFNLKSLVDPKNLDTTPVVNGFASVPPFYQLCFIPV
CYP4B1, sequence (P15128 whole entry): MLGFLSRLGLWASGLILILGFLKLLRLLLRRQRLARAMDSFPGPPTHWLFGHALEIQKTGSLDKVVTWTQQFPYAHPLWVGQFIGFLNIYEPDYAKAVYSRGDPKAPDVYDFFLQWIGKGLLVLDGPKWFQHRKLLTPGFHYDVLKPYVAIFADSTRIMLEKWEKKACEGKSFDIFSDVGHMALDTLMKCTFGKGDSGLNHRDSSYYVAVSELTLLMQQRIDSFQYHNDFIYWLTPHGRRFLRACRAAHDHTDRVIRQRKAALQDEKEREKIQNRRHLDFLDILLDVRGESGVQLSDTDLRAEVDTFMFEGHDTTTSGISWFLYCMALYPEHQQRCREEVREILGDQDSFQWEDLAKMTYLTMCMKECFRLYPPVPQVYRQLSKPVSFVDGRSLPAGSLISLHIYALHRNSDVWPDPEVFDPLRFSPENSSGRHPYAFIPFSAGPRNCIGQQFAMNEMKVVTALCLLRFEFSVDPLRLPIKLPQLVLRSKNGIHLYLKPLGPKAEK
CYP2E1, sequence (P05181 whole entry): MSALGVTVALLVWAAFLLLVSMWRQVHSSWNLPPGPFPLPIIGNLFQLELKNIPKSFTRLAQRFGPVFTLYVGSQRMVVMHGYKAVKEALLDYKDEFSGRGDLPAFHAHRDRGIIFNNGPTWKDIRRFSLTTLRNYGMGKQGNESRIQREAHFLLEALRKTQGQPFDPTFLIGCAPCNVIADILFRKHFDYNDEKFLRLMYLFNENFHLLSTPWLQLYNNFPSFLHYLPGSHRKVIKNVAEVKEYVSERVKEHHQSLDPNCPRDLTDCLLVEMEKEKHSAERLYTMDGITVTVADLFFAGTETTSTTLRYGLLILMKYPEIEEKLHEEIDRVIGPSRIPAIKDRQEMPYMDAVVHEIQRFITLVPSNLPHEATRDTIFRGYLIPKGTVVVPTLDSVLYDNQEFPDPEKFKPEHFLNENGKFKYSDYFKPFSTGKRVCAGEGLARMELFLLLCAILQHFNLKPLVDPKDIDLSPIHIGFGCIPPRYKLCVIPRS

As to `[2H]C([2H])([2H])c1ccc(Br)cc1` [Br-d3], at CYP2E1, the V/K came out at 0.027 min⁻¹ and the Vmax (usually the top rate of the reaction or transport when substrate is in excess) is 54.8 nM/min.
Regarding `Cc1ccc(Br)cc1` [Br, p-bromotoluene], the “Intramolecular KIE (kH/kD)” value at P450cam is recorded as 8.3; at CYP1A2 (pH 7.4), 6.83 (8); at CYP2B1, 8.02; on CYP2C9 (human, pH 7.4), 6.9. In addition, the “Intermolecular Noncompetitive ^DV” value on CYP2E1 (pH 7.4) amounted to 1.07 ± 0.04.
Consider `[2H]C([2H])([2H])Oc1ccc(C)cc1` [p-Methylanisole-α-^2H3], for which, on CYP2B1, the “nmol p-CR” value was 3.3* nmol, the “nmol p-MBA” value is reported as 0.9* nmol and the “nmol total TP” value was 4.2* nmol. For the same molecule, on CYP2B6, the “nmol p-CR” value was 9* nmol, the “nmol p-MBA” value is recorded as 2.39* nmol and the “nmol total TP” value turned out to be 11 nmol. Besides, on CYP2E1, the maximum rate (Vmax) is 18.0 nM/min, the “nmol p-CR” value is recorded as 18.2* nmol, the “nmol p-MBA” value is listed as 10.6* nmol and the “nmol total TP” value came to 29 nmol. Also, on CYP4B1, the “nmol p-CR” value was 52* nmol, the “nmol p-MBA” value is recorded as 48* nmol and the “nmol total TP” value is 100* nmol.
In the case of `CCCC(CCC)C(=O)O` [Valproate], the “ΔΔG (experimental)” value with CYP [1] is recorded as −2.48.
On to `Cc1ccc(Cl)cc1` [Cl, p-chlorotoluene], for which the “Intramolecular KIE (kH/kD)” value at P450cam is 6.5; at CYP2B1, 8.1 and 8.06 ± 0.12; on CYP2C9 (human, pH 7.4), 6.2. Moreover, the “Intermolecular Competitive ^D(V/K)” value at CYP2B1 is recorded as 3.21 ± 0.02. For the same molecule, the “Intermolecular Noncompetitive ^DV” value on CYP2E1 (pH 7.4) turned out to be 1.61 ± 0.01.
Take `Cc1ccc(C#N)cc1` [CN, p-tolunitrile]: the “Intramolecular KIE (kH/kD)” value at P450cam is given as 11.6; at CYP1A2 (pH 7.4) it was 10.1 (2); at CYP2B1, 11.9; at CYP2C9 (human, pH 7.4) it was 11.1; on CYP2E1 (pH 7.4), 10.1 (1).
In the case of `CCc1ccccc1` [Ethylbenzene], the “Experimental Ratio” value in the series on CYP [2] (Arom/benz) was found to be 0.086.
For the molecule `[2H]C([2H])([2H])c1ccc(CCl)cc1` [α-Chloromethyl-p-xylene-α′-^2H3], the “nmol TP” value at CYP1A2 is on record as 47 nmol; at CYP2B1, 21.3 nmol; at CYP2B6, 14* nmol; on CYP2C9 it was 1.8* nmol; on CYP2E1, 31 nmol; on CYP4B1, 17.0* nmol. The “nmol p-Alc” value on CYP1A2 is given as 1.3* nmol; at CYP2B1 it was 1.3* nmol; on CYP2B6, 1.82* nmol; at CYP2C9 it was 0.10* nmol; at CYP2E1 it was 0.78* nmol; at CYP4B1, 15.2* nmol. The “nmol p-Ald + TolA” value was 46 nmol at CYP1A2; 20.0* nmol on CYP2B1; 12* nmol on CYP2B6; 1.7* nmol at CYP2C9; 30 nmol at CYP2E1; 1.87* nmol on CYP4B1.
Turning to `COc1ccccc1` [Anisole], the “Experimental Ratio” value in the series with CYP [2] (human) stood at 10.6. The “Relative difference in energy for p-hydroxylation and demethylation” value with CYP [3] (calculated from the product ratios of Lindsay Smith et al.) is given as 0.6 kcal/mol. Besides, the “Intermolecular isotope effect (Lindsay Smith et al.)” value in the series with CYP [3] (deuteration of the methyl group) was 7. In addition, the “Ratio of p-hydroxyanisole to phenol, average” value in the series with CYP [3] (four microsomal systems (Lindsay Smith)) is listed as 2.9.
As for `Cc1ccc(C)cc1` [CH3, p-xylene], on CYP2E1 (pH 7.4), the “Intermolecular Competitive ^D(V/K)” value was 1.18 ± 0.03, the “Intermolecular Noncompetitive ^D(V/K)” value worked out at 1.19 ± 0.01, the “Intermolecular Noncompetitive ^DV” value is reported as 1.05 ± 0.03 and the “Intramolecular KIE (kH/kD)” value was 5.45 ± 0.05. For the same molecule, the “Benzylic hydroxylation, share of total oxidation / metabolism” value in the series on CYP [3] (depending on the source of CYP) is given as about 95%.
Turning to `Cc1ccccc1` [H, toluene], the “Intramolecular KIE (kH/kD)” value is recorded as 6.1 (4) on CYP1A2 (pH 7.4), 7 at CYP2B1 and 6.1 (1) at CYP2E1 (pH 7.4). Further, the “Isotope effect measured by White and McCarthy” value in the series on CYP [3] is 2.
As for `[2H]C([2H])([2H])c1ccc(Cl)cc1` [Cl-d3], at CYP2E1, the V/K is 0.020 min⁻¹ and the Vmax is 31.4 nM/min.
Take `[2H]C([2H])([2H])c1ccccc1OC` [o-Methylanisole-α-^2H3]: the “nmol 4M3MPh” value is 11.5* nmol on CYP1A2; 13* nmol at CYP2B1; 3.3 nmol on CYP2B6; 13* nmol at CYP2E1; 1.9* nmol at CYP4B1. Also, the “nmol TP” value is on record as 17.2 nmol at CYP1A2; 17* nmol at CYP2B1; 22 nmol at CYP2B6; 3.9* nmol on CYP2C9; 19* nmol on CYP2E1; 55 nmol on CYP4B1. Further, the “nmol o-CR” value at CYP1A2 was 4.2* nmol; at CYP2B1, 2.8* nmol; at CYP2B6 it was 17* nmol; on CYP2C9, 1.4* nmol; on CYP2E1, 4.7* nmol; on CYP4B1, 50* nmol. The “nmol o-MBA” value is recorded as 1.52* nmol at CYP1A2; 0.36* nmol at CYP2B1; 0.95* nmol on CYP2B6; 0.7* nmol on CYP2C9; 0.99* nmol on CYP2E1; 3.5* nmol on CYP4B1.
Turning to `CCCCCCCC` [Octane], the “ΔΔG (experimental)” value with CYP [1] was −3.13. The “Average P value (primary KIE)” value in the series with CYP [3] (Jones et al. 1987) was 7.6.
Consider `[2H]Cc1ccc(C[2H])cc1` [CH2D, p-Xylene-α-^2H1-α′-^2H1], for which the “Intramolecular KIE (kH/kD)” value at P450cam is reported as 6.0; on CYP1A2 it was 5.59 (1); on CYP2B1 it was 6.23; on CYP2C9, 5.9; at CYP2E1, 5.45 (5).
